In patent US20200360471A1, “METHODS OF TREATING AND PREVENTING VIRAL INFECTIONS” (priority 2017, published 2020):
Read-outs that look alike come from different tables or passages of the source. Peptide text beside a SMILES is read from it.

Experiments:
TLR3/RIG-1/Mda5 = assay: polyI:C-induced cytokine responses in PBMC cultures with peptide pre-treatment; type: cell-based, human; conditions: 5 or 25 μg/mL peptide, 30 min pre-treatment, 24 hrs
Procedure: Primary cell cultures were prepared in RPMI including 5% autologous plasma. Isolated PBMC cells were cultured in 96-well plates at a density of 0.5×10^6cells/well at 37° C., under humidified 5% CO2.
IL-1β, TNFα, IL-6 and IL-8 were measured simultaneously with a fixed electrochemoluminescence platform based on the sandwich ELISA principle of capture and detection antibodies, produced by MESO SCALE DISCOVERY (MSD, MESO SCALE QUICKPLEX SQ120). The applied assay was the V-PLEX PLUS pro-inflammatory cytokine panel II, including IL-1β, TNFα, IL-6 and IL-8. This assay includes manufacturer-provided control samples with indicated nominal values for comparison. These lyophilized controls, i.e. freeze-dried controls for IL-1β, TNFα, IL-6, IL-8, were prepared freshly at the time of use. QC samples were prepared from the calibrator at 3 different concentrations along the standard curve as multiple aliquots from a single batch and maintained at −20° C. Low, medium and high concentration controls were included in every multiplex assay run to control intra- and inter-assay variation. V-PLEX panels are specific for the detection of human chemokines and cytokines, and combinations have been validated by the manufacturer, to ensure no cross-reactivity.
IFNα was quantified by a sandwich ELISA based on specific capture and detection antibodies for various matrices (MABTECH), according to the manufacturer's instructions. QC samples were prepared from the calibrator at 3 different concentrations along the standard curve as multiple aliquots from a single batch and maintained at −20° C.
IFNβ was quantified by a sandwich ELISA based on specific capture and detection antibodies for various matrices (PBL ASSAY SCIENCE), according to the manufacturer's instructions. QC samples were prepared from the calibrator at 3 different concentrations along the standard curve as multiple aliquots from a single batch and maintained at −20° C. freezer.
Briefly, PBMC primary cultures were prepared from 4 healthy donors (2 males, 2 females) as described above. […] The cultures were prepared in duplicate and the readouts for pan-IFNα and IFNβ (ELISA) were measured once. Five-point concentration-response curves were constructed for the various treatment conditions in the PBMC cultures, freshly isolated from 4 subjects.

[1] = tested on: external anogenital warts; type: in vivo, human
Procedure: A randomized, double-blind, placebo-controlled study to assess the pharmacodynamics, safety/tolerability and efficacy of omiganan in patients with external anogenital warts was conducted. 24 patients aged 18 years or older with clinically diagnosed external anogenital warts were enrolled. […] The gel was applied topically once daily for 12 weeks. The treatment period was from day 0 till day 84. During the treatment period subjects visited the clinical unit on days 0, 14, 28, 56 and 84. A fixed dose of omiganan or placebo was applied once daily. Two follow up visits were scheduled on days 126 and 168. During study execution, vital signs were measured on days 0, 14, 28, 56 and 84. Pharmacodynamic assessments were performed on day 0 (pre-dose), 14, 28, 56 and 84, respectively. Punch biopsies were performed at the screening and on days 56 and 168. Subjects were dosed 84 consecutive days with approximately 24 hours between each treatment. Omiganan or placebo (vehicle) was administered to the subjects. […] Subjects were instructed to apply a fingertip unit of gel (approximately […]). Omiganan is prepared as a lyophilized powder of the pentahydrochloride salt. The molecular formula is C90H127N27O12. HCl*H2O. […] Any other therapy for external anogenital warts (topical treatment, laser therapy, cryotherapy, photodynamic therapy and surgical excision) was not allowed from 28 days prior to the first study drug administration, during the study and until the 3 month follow up assessment was completed. Wart count and wart clearance. The warts were counted at every study visit. FIGS. 18A and 18B show the change in value of the count of the target warts over time per treatment. […] Wart clearance was derived from the count of all warts present at baseline. In FIG. 19, the proportion of baseline lesions cleared is shown. […] Wart size. Wart size was measured during every visit. The change in mean of the long and short diameter, height and volume measured is presented in FIG. 21 along with the p-values.

[2] = tested on: imiquimod-induced inflammatory responses of the skin; assay: Topical omiganan and imiquimod in skin of healthy subjects; type: in vivo, human
Procedure: Sixteen (16) healthy subjects participated in the study. Pharmacodynamic effects were assessed on Day 1, 2, 3, 4, 5 and 14 (EOS) by clinical assessment of the lesion on-site with visual erythema grading by a blinded investigator, erythema by colorimetry, erythema by multispectral imaging, erythema by 2D photography analysis, perfusion by laser speckle contrast imaging (LSCI), skin surface biomarkers by transdermal analysis patch (TAP) and local biopsies biomarkers. […] 3 mm skin punch biopsies were collected at day 5 for qPCR mRNA expression, histology and immunohistochemistry. Enhanced inflammation and immune system activation was observed when OMN was applied to 48 hours IMQ primed skin. This was most pronounced for markers IFNγ, IL-10, IL-6, MX1 and MXA (FIGS. 39-43, respectively) indicating an increased anti-viral response. Further, this activity is correlated with cellular infiltrates of CD4+, CD8+ and CD14+ cells (FIGS. 44-47).

[3] = omiganan applied after imiquimod application

With `CC[C@H](C)[C@H](N)C(=O)N[C@@H](CC(C)C)C(=O)N[C@@H](CCCNC(=N)N)C(=O)N[C@@H](Cc1c[nH]c2ccccc12)C(=O)N1CCC[C@H]1C(=O)N[C@@H](Cc1c[nH]c2ccccc12)C(=O)N[C@@H](Cc1c[nH]c2ccccc12)C(=O)N1CCC[C@H]1C(=O)N[C@@H](Cc1c[nH]c2ccccc12)C(=O)N[C@@H](CCCNC(=N)N)C(=O)N[C@@H](CCCNC(=N)N)C(=O)N[C@@H](CCCCN)C(N)=O` [omiganan, I L R W P W W P W R R K] (H-ILRWPWWPWRRK-NH2) the “IL-6 responses to polyI:C (TLR3/RIG-1/Mda5)” value (TLR3/RIG-1/Mda5) was “did not significantly affect”, the “TNFα responses to polyI:C (TLR3/RIG-1/Mda5)” value (TLR3/RIG-1/Mda5) was “did not significantly affect” and the “polyI:C-driven IL-1β release” value (TLR3/RIG-1/Mda5) was “did not significantly affect”. The “spontaneous and polyI:C-driven IL-8 release” value (TLR3/RIG-1/Mda5) was “strongly inhibited”, the “interferon responses induced by polyI:C stimulation” value (TLR3/RIG-1/Mda5; PBMC of 4 donors) was “enhanced” and the “proportion of all lesions cleared (printed: mean of baseline warts cleared)” value ([1]; EOS, p-value=0.2891 vs vehicle) was 23.82%. The “mean of baseline warts cleared” value ([1]; EOS, p-value=0.3918 vs vehicle) was 29.3%, the “mean of all warts cleared” value ([1]; EOT, p-value=0.1879 vs vehicle) was 11.4% and the “mean of baseline warts cleared” value ([1]; EOT, p-value=0.2500 vs vehicle) was 15.5%. The “mean volume of the target warts compared to vehicle” value ([1]; at EOT visit, p-value=0.0367) was “significantly lower”, the “volume of the warts compared to vehicle” value ([1]; entire study period (pre-dose till EOS), p=0.0655) was “trend to reduction” and the adverse events ([1]; human, in vivo) was “few adverse events”. The “safety of administration to patients with external anogenital warts” value ([1]; human, in vivo) was “safe”, the “height of the warts compared to vehicle” value ([1]; p=0.0543) was “clear trend in decrease” and the wart count ([1]; summary of study) was “trend in reduction”. The “photography assessment of anogenital warts” value ([1]; two subjects treated with omiganan) was “visible wart size reduction or even clearance”, the “relation of this activity to cellular infiltrates of CD4+, CD8+ and CD14+ cells” value ([2]; applied to 48 hours IMQ primed skin, biopsies day 5) was “correlated” and the “inflammation and immune system activation (most pronounced for IFNγ, IL-10, IL-6, MX1, MXA)” value ([2]; applied to 48 hours IMQ primed skin, biopsies day 5, qPCR) was “Enhanced”. For the same compound, the basal blood flow [2, 3] was “enhanced the activity of imiquimod” and the erythema [2, 3] was “enhanced the activity of imiquimod”.
